In patent US10781224B2, “Bis(oxymethyl)phosphinic acid and biogenic metal salts thereof as regulators of plant growth and development” (priority 2016, dated 2020):

System: corn (Krasnodar 385 MV variety)
Test: Corn seed treatment with BHMPA salts: germinating power
Format: in vivo
Procedure: Experimental versions—soaking seeds in BHMPA solutions and solutions of BHMPA Ca, Mg, Na, Co, Mn, Cu, and Zn salts at 1·10^−6-1·10^−12% concentrations (doses). The studies were conducted in laboratory in Petri dishes; seed bed—two layers of filter paper. 50 seeds soaked in water (control) and in the solutions of the tested compounds (experimental) were placed into each dish. Wheat, corn, and rice seeds were exposed for one hour.
Seed germination energy and rate were calculated in percent as an arithmetic mean of the four experimental results (germination energy on the 4th day, wheat germination on the 8th day, rice and corn germination—on the 7th day). Germination was determined based on the germinating power indicators (length of the roots and sprouts and their wet and dry mass per 100 shoots).
The effect of pre-sowing seed treatment with the claimed BHMPA salts of biogenic metals was studied on winter wheat (Vershin variety), corn (Krasnodar 385 MV variety), and rice (Diamant variety).
The above data describe the seed viability only at the initial stage of germination, while the germination ability at the later stage of germination is defined by the initial germinating power. The method for the determination of the germinating power comprises measuring the height of the sprouts and primary roots, as well as the biomass and the dry mass thereof per 100 seedlings. [M. A. Kartuzova. Initial Germinating Power as Method of Biological Assessment of Seed Quality. Selection and Seed Farming, #2, 1953].

[1] = corn seeds, solution concentration 1 · 10^−6%, manganese salt of BHMPA
[2] = corn seeds, solution concentration 1 · 10^−7%, manganese salt of BHMPA
[3] = corn seeds, solution concentration 1 · 10^−8%, manganese salt of BHMPA
[4] = corn seeds, solution concentration 1 · 10^−9%, manganese salt of BHMPA
[5] = corn seeds, solution concentration 1 · 10^−10%, manganese salt of BHMPA
[6] = corn seeds, solution concentration 1 · 10^−11%, manganese salt of BHMPA
[7] = corn seeds, solution concentration 1 · 10^−12%, manganese salt of BHMPA
[8] = corn seeds, solution concentration 1 · 10^−6%, sodium salt of BHMPA
[9] = corn seeds, solution concentration 1 · 10^−7%, sodium salt of BHMPA
[10] = corn seeds, solution concentration 1 · 10^−8%, sodium salt of BHMPA
[11] = corn seeds, solution concentration 1 · 10^−9%, sodium salt of BHMPA
[12] = corn seeds, solution concentration 1 · 10^−10%, sodium salt of BHMPA
[13] = corn seeds, solution concentration 1 · 10^−11%, sodium salt of BHMPA
[14] = corn seeds, solution concentration 1 · 10^−12%, sodium salt of BHMPA

O.O.O=P([O-])(CO)CO.O=P([O-])(CO)CO.[Mn+2] [Mn-salt, Manganese BHMPA Salt]
optimum concentration for treating corn seeds before sowing (corn): 1·10^−9% | Length, root [1]: 4.6 cm | Length, root, + % to control [1]: −4% | Length, sprout [1]: 2.8 cm | Length, sprout, + % to control [1]: −18% | Mass, dry, root [1]: 1.47 g/100 plantlings | Mass, dry, root, + % to control [1]: 6% | Mass, dry, sprout [1]: 0.83 g/100 plantlings | Mass, dry, sprout, + % to control [1]: 5% | Mass, wet, root [1]: 9.87 g/100 plantlings | Mass, wet, root, + % to control [1]: 12% | Mass, wet, sprout [1]: 5.92 g/100 plantlings | Mass, wet, sprout, + % to control [1]: 0% | Length, root [2]: 5.0 cm | Length, root, + % to control [2]: 4% | Length, sprout [2]: 3.1 cm | Length, sprout, + % to control [2]: −9% | Mass, dry, root [2]: 1.55 g/100 plantlings | Mass, dry, root, + % to control [2]: 11.5% | Mass, dry, sprout [2]: 0.89 g/100 plantlings | Mass, dry, sprout, + % to control [2]: 13% | Mass, wet, root [2]: 10.61 g/100 plantlings | Mass, wet, root, + % to control [2]: 20% | Mass, wet, sprout [2]: 6.63 g/100 plantlings | Mass, wet, sprout, + % to control [2]: 12% | Length, root [3]: 5.4 cm | Length, root, + % to control [3]: 12.5% | Length, sprout [3]: 3.6 cm | Length, sprout, + % to control [3]: 6% | Mass, dry, root [3]: 1.69 g/100 plantlings | Mass, dry, root, + % to control [3]: 21.5% | Mass, dry, sprout [3]: 1.05 g/100 plantlings | Mass, dry, sprout, + % to control [3]: 33% | Mass, wet, root [3]: 11.92 g/100 plantlings | Mass, wet, root, + % to control [3]: 35% | Mass, wet, sprout [3]: 7.03 g/100 plantlings | Mass, wet, sprout, + % to control [3]: 19% | Length, root [4]: 5.8 cm | Length, root, + % to control [4]: 21% | Length, sprout [4]: 3.9 cm | Length, sprout, + % to control [4]: 15% | Mass, dry, root [4]: 1.82 g/100 plantlings | Mass, dry, root, + % to control [4]: 31% | Mass, dry, sprout [4]: 1.25 g/100 plantlings | Mass, wet, root [4]: 12.62 g/100 plantlings | Mass, wet, root, + % to control [4]: 43% | Mass, wet, sprout [4]: 7.69 g/100 plantlings | Mass, wet, sprout, + % to control [4]: 30% | Length, root [5]: 5.5 cm | Length, root, + % to control [5]: 14.5% | Length, sprout [5]: 3.7 cm | Length, sprout, + % to control [5]: 9% | Mass, dry, root [5]: 1.72 g/100 plantlings | Mass, dry, root, + % to control [5]: 24% | Mass, dry, sprout [5]: 1.17 g/100 plantlings | Mass, dry, sprout, + % to control [5]: 48% | Mass, wet, root [5]: 12.06 g/100 plantlings | Mass, wet, root, + % to control [5]: 36.5% | Mass, wet, sprout [5]: 7.29 g/100 plantlings | Mass, wet, sprout, + % to control [5]: 23.5% | Length, root [6]: 5.3 cm | Length, root, + % to control [6]: 10% | Length, sprout [6]: 3.4 cm | Length, sprout, + % to control [6]: 0% | Mass, dry, root [6]: 1.61 g/100 plantlings | Mass, dry, root, + % to control [6]: 16% | Mass, dry, sprout [6]: 0.92 g/100 plantlings | Mass, dry, sprout, + % to control [6]: 16% | Mass, wet, root [6]: 11.78 g/100 plantlings | Mass, wet, root, + % to control [6]: 33% | Mass, wet, sprout [6]: 6.91 g/100 plantlings | Mass, wet, sprout, + % to control [6]: 17% | Length, root [7]: 4.9 cm | Length, root, + % to control [7]: 2% | Length, sprout [7]: 2.9 cm | Length, sprout, + % to control [7]: −15% | Mass, dry, root [7]: 1.47 g/100 plantlings | Mass, dry, root, + % to control [7]: 6% | Mass, dry, sprout [7]: 0.79 g/100 plantlings | Mass, dry, sprout, + % to control [7]: 0% | Mass, wet, root [7]: 10.88 g/100 plantlings | Mass, wet, root, + % to control [7]: 23% | Mass, wet, sprout [7]: 6.28 g/100 plantlings | Mass, wet, sprout, + % to control [7]: 6% | effectiveness on germinating power (corn, 1·10^−6%, 1·10^−7%, 1·10^−11% and 1·10^−12% solutions): ineffective | Length, root, + % to control (corn, 1·10^−9% solution): 21% | Length, sprout, + % to control (corn, 1·10^−9% solution): 15% | Mass, dry, root, + % to control (corn, 1·10^−9% solution): 31% | Mass, dry, sprout, + % to control (corn, 1·10^−9% solution): 58% | Mass, wet, root, + % to control (corn, 1·10^−9% solution): 43% | Mass, wet, sprout, + % to control (corn, 1·10^−9% solution): 30%

O=P([O-])(CO)CO.[Na+] [Na-salt, Sodium BHMPA Salt]
optimum concentration for treating corn seeds before sowing (corn): 1·10^−10% | Length, root [8]: 4.5 cm | Length, root, + % to control [8]: −4% | Length, sprout [8]: 2.4 cm | Length, sprout, + % to control [8]: −14% | Mass, dry, root [8]: 0.99 g/100 plantlings | Mass, dry, root, + % to control [8]: −19% | Mass, dry, sprout [8]: 0.69 g/100 plantlings | Mass, dry, sprout, + % to control [8]: −4% | Mass, wet, root [8]: 5.95 g/100 plantlings | Mass, wet, root, + % to control [8]: −12% | Mass, wet, sprout [8]: 4.34 g/100 plantlings | Mass, wet, sprout, + % to control [8]: −5% | Length, root [9]: 4.9 cm | Length, root, + % to control [9]: 4% | Length, sprout [9]: 2.6 cm | Length, sprout, + % to control [9]: −7% | Mass, dry, root [9]: 1.03 g/100 plantlings | Mass, dry, root, + % to control [9]: −15.5% | Mass, dry, sprout [9]: 0.77 g/100 plantlings | Mass, dry, sprout, + % to control [9]: 7% | Mass, wet, root [9]: 6.72 g/100 plantlings | Mass, wet, root, + % to control [9]: −1% | Mass, wet, sprout [9]: 4.62 g/100 plantlings | Mass, wet, sprout, + % to control [9]: 1% | Length, root [10]: 5.0 cm | Length, root, + % to control [10]: 6% | Length, sprout [10]: 2.8 cm | Length, sprout, + % to control [10]: 0% | Mass, dry, root [10]: 1.18 g/100 plantlings | Mass, dry, root, + % to control [10]: −3% | Mass, dry, sprout [10]: 0.86 g/100 plantlings | Mass, dry, sprout, + % to control [10]: 19% | Mass, wet, root [10]: 6.93 g/100 plantlings | Mass, wet, root, + % to control [10]: 2% | Mass, wet, sprout [10]: 4.74 g/100 plantlings | Mass, wet, sprout, + % to control [10]: 4% | Length, root [11]: 5.2 cm | Length, root, + % to control [11]: 11% | Length, sprout [11]: 3.0 cm | Length, sprout, + % to control [11]: 7% | Mass, dry, root [11]: 1.25 g/100 plantlings | Mass, dry, root, + % to control [11]: 2% | Mass, dry, sprout [11]: 0.69 g/100 plantlings | Mass, dry, sprout, + % to control [11]: 26% | Mass, wet, root [11]: 7.08 g/100 plantlings | Mass, wet, root, + % to control [11]: 4% | Mass, wet, sprout [11]: 4.91 g/100 plantlings | Mass, wet, sprout, + % to control [11]: 7% | Length, root [12]: 5.5 cm | Length, root, + % to control [12]: 17% | Length, sprout [12]: 3.1 cm | Length, sprout, + % to control [12]: 11% | Mass, dry, root [12]: 1.30 g/100 plantlings | Mass, dry, root, + % to control [12]: 6.5% | Mass, dry, sprout [12]: 1.12 g/100 plantlings | Mass, wet, root [12]: 7.19 g/100 plantlings | Mass, wet, sprout [12]: 5.35 g/100 plantlings | Mass, wet, sprout, + % to control [12]: 17% | Length, root [13]: 5.3 cm | Length, root, + % to control [13]: 13% | Length, sprout [13]: 2.9 cm | Length, sprout, + % to control [13]: 3.5% | Mass, dry, root [13]: 1.26 g/100 plantlings | Mass, dry, root, + % to control [13]: 3% | Mass, dry, sprout [13]: 0.92 g/100 plantlings | Mass, dry, sprout, + % to control [13]: 28% | Mass, wet, root [13]: 6.88 g/100 plantlings | Mass, wet, root, + % to control [13]: 1% | Mass, wet, sprout [13]: 4.99 g/100 plantlings | Mass, wet, sprout, + % to control [13]: 9% | Length, root [14]: 4.6 cm | Length, root, + % to control [14]: −2% | Length, sprout [14]: 2.6 cm | Length, sprout, + % to control [14]: −7% | Mass, dry, root [14]: 0.95 g/100 plantlings | Mass, dry, root, + % to control [14]: −22% | Mass, dry, sprout [14]: 0.80 g/100 plantlings | Mass, dry, sprout, + % to control [14]: 11% | Mass, wet, root [14]: 6.12 g/100 plantlings | Mass, wet, root, + % to control [14]: −10% | Mass, wet, sprout [14]: 4.37 g/100 plantlings | Mass, wet, sprout, + % to control [14]: −4% | effectiveness on germinating power (corn, 1·10^−6% and 1·10^−12% solutions): ineffective | Length, root, + % to control (corn, 1·10^−10% solution): 17% | Length, sprout, + % to control (corn, 1·10^−10% solution): 11% | Mass, dry, root, + % to control (corn, 1·10^−10% solution): 6.5% | Mass, dry, sprout, + % to control (corn, 1·10^−10% solution): 55.5% | Mass, wet, root, + % to control (corn, 1·10^−10% solution): 6% | Mass, wet, sprout, + % to control (corn, 1·10^−10% solution): 17%
